Test results as given in patent US7026318B2 (Shionogi & Co., Ltd., priority 2000, dated 2006).
Where two headings read alike, the source gives them in different places.

What was measured:
[1] = molecular target: T1, human type V sPLA2 (Homo sapiens, UniProt P39877); assay: Inhibition test of human secretory phospholipase A2, chromogenic assay, type V enzyme; format: biochemical
T1 construct: made in house; unpurified culture supernatant
T1 sequence (P39877 21-138): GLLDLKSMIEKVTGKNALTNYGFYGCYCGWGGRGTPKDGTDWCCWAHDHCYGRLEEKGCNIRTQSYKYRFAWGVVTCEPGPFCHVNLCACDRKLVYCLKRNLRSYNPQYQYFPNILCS

[2] = molecular target: T2, human type II enzyme (sPLA2) (Homo sapiens, UniProt P14555); assay: Inhibition test of human secretory phospholipase A2, chromogenic assay, type II enzyme; format: biochemical
T2 sequence (P14555 21-144): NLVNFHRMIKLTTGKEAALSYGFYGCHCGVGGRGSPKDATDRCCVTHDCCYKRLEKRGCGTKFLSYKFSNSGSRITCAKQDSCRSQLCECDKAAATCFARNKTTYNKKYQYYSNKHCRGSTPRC

[3] = molecular target: human type I enzyme (sPLA2) (Homo sapiens, UniProt P04054); assay: Inhibition test of human secretory phospholipase A2, chromogenic assay, type I enzyme; format: biochemical
Chain of human type I enzyme (sPLA2) (P04054 23-148): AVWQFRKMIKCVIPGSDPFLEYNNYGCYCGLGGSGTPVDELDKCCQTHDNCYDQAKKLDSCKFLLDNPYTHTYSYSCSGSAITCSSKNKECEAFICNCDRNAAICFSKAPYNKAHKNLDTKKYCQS

[4] = molecular target: T3, human type X sPLA2 (Homo sapiens, UniProt O15496); assay: Inhibition test of human secretory phospholipase A2, chromogenic assay, type X enzyme; format: biochemical
T3 construct: made in house; unpurified culture supernatant
T3 sequence (O15496 43-165): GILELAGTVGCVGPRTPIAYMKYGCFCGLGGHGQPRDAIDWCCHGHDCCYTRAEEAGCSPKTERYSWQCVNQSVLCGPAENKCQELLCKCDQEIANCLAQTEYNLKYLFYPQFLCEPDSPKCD

[5] = molecular target: T3, human type X sPLA2; assay: Type X sPLA2-induced PGE2 production in human colon carcinoma HT-29 cells; format: cell-based; details: compound 10 μM; TNF-α-treated HT-29 cells; 100 nM human type X sPLA2, 3 h; percentage of PGE2 produced by type X sPLA2 (no treatment group = 100)
Procedure: Examination 16: Effects of sPLA2 Inhibitors on Type X sPLA2-Induced PGE2 Production in Human Colon Carcinoma Cell Lines, HT-29 Cells.
HT-29 cells were seeded into 24-well plates at a density of 2.5×10^5 cells/well. After incubation for 24 h, the cells were washed three times with PBS and incubated with 30 ng/mL of recombinant human tumor necrosis factor-α (R&D Systems, Inc.) in DMEM medium supplemented with 10% fetal bovine serum for 18 h at 37° C. After washing with PBS, the cells were preincubated with or without test compounds (at a final concentration of 10 μM; dissolved in DMSO) in Hanks' buffered saline containing 0.1% BSA for 10 min at 37° C., and then stimulated with 100 nM purified human type X sPLA2 enzyme in a final volume of 0.5 mL. After incubation for 3 h at 37° C, the culture supernatant was collected following the centrifugation for the removal of floating cells, and its PGE2 content was quantified with an enzyme-immunoassay kit (Cayman Chemicals Co.). From each data, the value in the absence of type X sPLA2 was subtracted. The amount of PGE2 in the presence of each test compound was expressed as the percentage of the PGE2 content produced by the addition of type X sPLA2 enzyme.

[6] = molecular target: T3, human type X sPLA2; assay: Human type X sPLA2-induced oleic acid release in human colon carcinoma HT-29 cells; format: cell-based; details: compound 10 μM, 100 nM human type X sPLA2, 30 min, percentage of the increase by type X sPLA2 (no treatment group = 100)
Procedure: Examination 15: Effects of sPLA2 Inhibitors on Human Type X sPLA2-Induced Oleic Acid Release in Human Colon Calcinoma Cell Lines, HT-29 Cells.
Human colon calcinoma cell lines, HT-29 cells (obtained from ATCC) were cultured in DMEM supplemented with 10% fetal calf serum. The cells were washed by phosphate-buffered saline (PBS), detached from culture plates by treatment with trypsin/EDTA solution and further washed by PBS. The resulting cells were resuspended in Hanks' buffered saline containing 0.1% bovine serum albumin (BSA) at a density of 12.5×10^6 cells/mL. Aliquots of the cell suspension (0.4 ml) were transferred into polypropylene tubes and test compounds dissolved in DMSO solution (final concentration; 10 μM) were added. After preincubation for 10 min at 37° C., 100 nM purified human type X sPLA2 enzyme (Hanasaki et al J. Biol. Chem. (1999) 274, 34203–34211) was added (final volume of 0.5 mL). After incubation for 30 min at 37° C., the reaction was stopped by the addition of 2 ml Dole's reagent (heptane:2-propanol:1M H2SO4=10:40:1, v/v/v).

[7] = molecular target: T3, human type X sPLA2; assay: Type X sPLA2-induced fatty acid release from isolated human lipoproteins (LDL); format: biochemical; details: read-out: % of Inhibition (10 μM)
Procedure: Examination 17: Effects of sPLA2 Inhibitors on Type X sPLA2-Induced Fatty Acid Release From Isolated Human Lipoproteins.
LDL was isolated from human plasma by sequential ultracentrifugation method (Havel et al. J. Clin. Invest. 34,1345–1353 (1955)). LDL (0.5 mg/mL) was incubated with 10 nmol/L of human type X sPLA2 in the assay mixture containing 12.5 mmol/L Tris-HCl buffer (pH 8.0), 125 mg/L bovine serum albumin and 1 mmol/L calcium chloride for 4 hr at 37° C. Fatty acids released from lipoprotein were extracted by Dole's method (Dole et al. J. Biol. Chem. 235, 2595–2599 (1960)), labeled with 9-anthryldiazomethane according to a known method (Hanasaki et al., J. Biol. Chem. 274, 34203–34211 (1999)) and measured by detecting the fluorescence of labeled fatty acids using reverse-phase high performance chromatography (LiChroCART 125-4 Superspher 100 RP-18 column (Merck). For the inhibition assay of drugs, sPLA2 inhibitors (final concentration of 10 μM) were added at almost the same time as the addition of sPLA2 into the reaction solution. The results are presented in Table 10.

[8] = human sPLA2 type V (CHO supernatant), chromogenic assay, 45 min, read-out: IC50 type V
[9] = human sPLA2 type II, chromogenic assay, 30 min, read-out: IC50 type II
[10] = recombinant human sPLA2 type I, chromogenic assay, 30 min, read-out: IC50 type I
[11] = human sPLA2 type X (CHO supernatant), chromogenic assay, 30 min, read-out: IC50 type X

| melting point [°C] | SMILES | IC50 [1, 8] [nM] | IC50 [2, 9] [nM] | IC50 [3, 10] [nM] | also measured |
| --- | --- | --- | --- | --- | --- |
| 200 to 201 | CCS(=O)(=O)NC(=O)COc1cccc2c1c(C(=O)C(N)=O)c(CC(C)C)n2Cc1ccccc1 | – | – | – | – |
| 181 to 183 | CCCS(=O)(=O)NC(=O)COc1cccc2c1c(C(=O)C(N)=O)c(CC(C)C)n2Cc1ccccc1 | – | – | – | – |
| 218.5 to 220 | CC(C)Cc1c(C(=O)C(N)=O)c2c(OCC(=O)NS(=O)(=O)C(C)C)cccc2n1Cc1ccccc1 | – | – | – | – |
| 219.5 to 221 | CCCCS(=O)(=O)NC(=O)COc1cccc2c1c(C(=O)C(N)=O)c(CC(C)C)n2Cc1ccccc1 | – | – | – | – |
| 206 to 208 | Cc1cn2c(Cc3ccccc3)c(CC(C)C)c(C(=O)C(N)=O)c2c(OCC(=O)O)n1 [Compound I-1] | > 1000 | > 1000 | > 700 | IC50 [4, 11]: 32 nM |
| 209 to 210 | Cc1cn2c(CC3CCCCC3)c(CC(C)C)c(C(=O)C(N)=O)c2c(OCC(=O)O)n1 [Compound I-2] | > 1000 | > 1000 | > 700 | IC50 [4, 11]: 43 nM |
| 193 to 194.5 | Cc1cn2c(CC3CCCC3)c(CC(C)C)c(C(=O)C(N)=O)c2c(OCC(=O)O)n1 [Compound I-3] | > 1000 | > 1000 | > 700 | IC50 [4, 11]: 48 nM |
| 202 to 203 | Cc1cn2c(CCc3ccccc3)c(CC(C)C)c(C(=O)C(N)=O)c2c(OCC(=O)O)n1 [Compound I-4] | – | – | – | PGE2 production [5]: 35.3 ± 40.2 %; Oleic acid release [6]: 13.8 ± 1.8 % |
| 205 to 207 | CCCCc1c(C(=O)C(N)=O)c2c(OCC(=O)O)nc(C)cn2c1Cc1ccccc1 [Compound I-5] | – | – | – | – |
| 258 to 260 | Cc1cn2c(Cc3ccccc3)c(Cc3ccccc3)c(C(=O)C(N)=O)c2c(OCC(=O)O)n1 [Compound I-7] | – | – | – | – |
| 245 to 247 | Cc1cc(OCC(=O)O)c2c(C(=O)C(N)=O)c(CC(C)C)c(Cc3ccccc3)n2n1 [Compound I-9] | > 1000 | > 1000 | > 700 | IC50 [4, 11]: 22 nM |
| 200.5 to 202 | CC(C)Cc1c(C(=O)C(N)=O)c2c(OCC(=O)O)cccc2n1-c1ccccc1 [Compound I-14] | – | – | – | – |
| 193 to 195 | Cc1cn2c(Cc3ccccc3)c(CC(C)C)c(C(=O)C(N)=O)c2c(OCC(=O)NS(=O)(=O)c2ccccc2)n1 [Compound I-15] | > 1000 | > 1000 | > 700 | IC50 [4, 11]: 37 nM |
| 211 to 212 | Cc1cn2c(Cc3ccccc3)c(CC(C)C)c(C(=O)C(N)=O)c2c(OCC(=O)NS(C)(=O)=O)n1 [Compound I-16] | – | – | – | – |
| 214 to 215 | CCS(=O)(=O)NC(=O)COc1nc(C)cn2c(Cc3ccccc3)c(CC(C)C)c(C(=O)C(N)=O)c12 [Compound I-17] | – | – | – | – |
| 205 to 207 | CCCS(=O)(=O)NC(=O)COc1nc(C)cn2c(Cc3ccccc3)c(CC(C)C)c(C(=O)C(N)=O)c12 [Compound I-18] | – | – | – | – |
| 196 to 198 | Cc1cn2c(Cc3ccccc3)c(CC(C)C)c(C(=O)C(N)=O)c2c(OCC(=O)NS(=O)(=O)C(C)C)n1 [Compound I-19] | – | – | – | – |
| – | CC(C)Cc1c(C(=O)C(N)=O)c2c(OCC(=O)NS(=O)(=O)c3ccccc3)cccc2n1Cc1ccccc1 [Compound I-21] | – | – | – | PGE2 production [5]: −6.6 ± 7.1 %; IC50 [4]: 8 nM; Oleic acid release [6]: 11.8 ± 0.6 % |
| – | CC(C)Cc1c(C(=O)C(N)=O)c2c(OCC(=O)NS(C)(=O)=O)cccc2n1Cc1ccccc1 [Compound I-23] | > 1000 | > 1000 | > 700 | PGE2 production [5]: 9.0 ± 28.1 %; IC50 [4]: 6 nM; Oleic acid release [6]: −2.0 ± 5.1 % |
| – | CC(C)Cc1c(C(=O)C(N)=O)c2c(OCC(=O)NS(=O)(=O)C(F)(F)F)cccc2n1Cc1ccccc1 [Compound I-30] | – | – | – | inhibition at 10 µM ([7]; compound 10 μM, human LDL 0.5 mg/mL, 10 nmol/L human type X sPLA2, 4 hr at 37° C.): 97.5% |
| – | Cc1cc(OCC(=O)NS(=O)(=O)c2ccccc2)c2c(C(=O)C(N)=O)c(CC(C)C)c(Cc3ccccc3)n2n1 [Compound I-32] | > 1000 | > 1000 | > 700 | IC50 [4, 11]: 46 nM |
| 189 to 190 | CC(C)Cc1c(CC(N)=O)c2c(OCC(=O)NS(=O)(=O)C(C)C)cccc2n1Cc1ccccc1 [Compound I-34] | – | – | – | – |
| 188 to 190 | Cc1cn2c(Cc3ccccc3)c(CC(C)C)c(CC(N)=O)c2c(OCC(=O)NS(C)(=O)=O)n1 [Compound I-35] | – | – | – | – |
| 162 to 163 | Cc1cn2c(Cc3ccccc3)c(CC(C)C)c(CC(N)=O)c2c(OCC(=O)NS(=O)(=O)C(C)C)n1 [Compound I-36] | – | – | – | – |

| SMILES | melting point [°C] | IC50 [1, 8] [nM] | IC50 [2, 9] [nM] | IC50 [3, 10] [nM] | also measured |
| --- | --- | --- | --- | --- | --- |
| CC(C)Cc1c(C(=O)C(N)=O)c2c(OCC(=O)O)cccc2n1Cc1ccc(F)cc1 [Compound I-11] | 172 to 173.5 | > 1000 | > 1000 | > 700 | IC50 [4]: 12 nM |
| CC(C)Cc1c(C(=O)C(N)=O)c2c(OCC(=O)O)cccc2n1CC1CCCCC1 [Compound I-12] | 195.5 to 197 | > 1000 | > 1000 | > 700 | IC50 [4]: 32 nM |
| Cc1cc(OCC(=O)O)c2c(C(=O)C(N)=O)c(CC(C)C)n(Cc3ccccc3)c2c1 [Compound I-13] | 220 to 221.5 | > 1000 | > 1000 | > 700 | IC50 [4]: 28 nM |
| CC(C)Cc1c(C(=O)C(N)=O)c2c(OCC(=O)NS(=O)(=O)c3ccccc3)cccc2n1Cc1ccc(F)cc1 [Compound I-22] | 172 to 173 | – | – | – | IC50 [1]: > 1000 nM; IC50 [2]: > 1000 nM; IC50 [3]: > 700 nM; IC50 [4]: 8 nM; inhibition at 10 µM [7]: 91.7% |
| Cc1cc(OCC(=O)NS(=O)(=O)c2ccccc2)c2c(C(=O)C(N)=O)c(CC(C)C)n(Cc3ccccc3)c2c1 [Compound I-24] | 145 to 147 | > 1000 | > 1000 | > 700 | IC50 [4]: 23 nM |
| Cc1cc(OCC(=O)NS(C)(=O)=O)c2c(C(=O)C(N)=O)c(CC(C)C)n(Cc3ccccc3)c2c1 [Compound I-25] | 211 to 214 | > 1000 | > 1000 | > 700 | IC50 [4]: 7 nM |
